The test system of one assay is Candida albicans. Kind of assay: Static tests: minimal inhibitory (MIC) and minimal fungicidal concentration (MFC) on Candida albicans strains. The class given is cell-based. The protocol:
In Vitro Tests: Determination of Minimal Fungicidal Concentration (MFC) on Different Strains of Candida albicans
The experiment was carried out with several strains of Candida albicans having different susceptibilities isolated in the hospital environment from the mouth, vagina and digestive tract. […] An antifungal pharmaceutical composition was prepared by mixing fluconazole at different concentrations with carvacrol at a sub-inhibitory concentration of 0.3 g per liter of solution or excipient. This pharmaceutical composition according to the invention was named FLUC-P for potentiated fluconazole. In each case, antifungal activity was determined either with fluconazole alone, or with carvacrol alone, or with the composition of the invention.
Table 1 gives the results of static tests to determine the minimal fungicidal concentration (MFC) in μg/ml.
(§1) The experiment was carried out with several strains of Candida albicans having different susceptibilities isolated in the hospital environment. The antifungal agent used was voriconazole, an azole derivative and one of the most recent antifungals on the market. An antifungal pharmaceutical composition according to the invention was prepared by mixing voriconazole at different concentrations with carvacrol at a sub-inhibitory concentration of 0.3 g per liter of solution or excipient. This pharmaceutical composition according to the invention was named Vorico-P for potentiated voriconazole. In each case, antifungal activity was determined either with voriconazole alone, or with carvacrol alone, or with the composition of the invention.
Table 2 gives the results of static tests to determine the minimal inhibitory concentration (MIC) and the minimal fungicidal concentration (MFC) in μg/ml.
as §1, with “caspofungin, from the echinocandin family, which is” for “voriconazole, an azole derivative and”, “newest” for “most recent”, “caspofungin” for “voriconazole”, “Caspo-P” for “Vorico-P”, “caspofungin.” for “voriconazole.”
Table 3 gives the results of static tests to determine the minimal inhibitory concentration (MIC) and the minimal fungicidal concentration (MFC) in μg/ml.
The experiment was carried out with several strains of Candida albicans having different susceptibilities isolated in the hospital environment. The antifungal agent used was 5-fluorocytosine, from the pyrimidine group, which is one of the oldest antifungal agents. An antifungal pharmaceutical composition according to the invention was prepared by mixing 5-fluorocytosine at different concentrations with eugenol at a sub-inhibitory concentration of 0.5 g per liter of solution or excipient. This pharmaceutical composition according to the invention was named Fluoro-P for potentiated 5-fluorocytosine. In each case, antifungal activity was determined either with 5-fluorocytosine alone, or with eugenol alone, or with the composition of the invention.
Table 4 gives the results of static tests to determine the minimal inhibitory concentration (MIC) and the minimal fungicidal concentration (MFC) in μg/ml.

Assay [1] concerns Candida albicans strain with moderate resistance to fluconazole. Format: in vivo, mice. The following applies: fluconazole alone 4 mg/kg/day, carvacrol alone 30 mg/kg/day; for survival: mice, gavage from 24 h post-infection, seven days, composition fluconazole 2 mg/kg + carvacrol 30 mg/kg, FIG. 2; for Candida albicans loads in kidney, lung and bone marrow: organs of mice which died during the experiment. The source says:
FIG. 2 presents the results of in vivo tests in a systemic candidiasis model in experimentally infected mice either untreated, or treated with fluconazole alone, treated with carvacrol alone, or treated with a pharmaceutical composition according to the invention comprising fluconazole and carvacrol.
Groups of 15 mice were experimentally infected by intravenous injection of 10,000,000 cells (colony-forming units) of a Candida albicans strain with moderate resistance to fluconazole.
The first group was composed of control mice which were infected and untreated.
The second group was composed of infected mice treated by gavage, 24 h post-infection, with fluconazole alone at a dose of 4 mg/kg of body weight/day.
The third group was composed of infected mice treated by gavage, 24 h post-infection, with carvacrol alone at a dose of 30 mg/kg of body weight/day.
The fourth group was composed of infected mice treated by gavage, 24 h post-infection, with fluconazole 2 mg/kg of body weight and with carvacrol 30 mg/kg of body weight.
The duration of treatment was seven days for surviving animals. The survival rate was measured over time. […] All the other mice died between the second and seventh day post-infection.

Another assay concerns Aspergillus niger. Kind of assay: Static tests: MIC and MFC on Aspergillus niger strains. The class given is cell-based. The protocol: The experiment was carried out with several strains of Aspergillus niger which were not susceptible to fluconazole. The antifungal agent used was fluconazole, an azole derivative and one of the most widely used antifungals. […] Aspergillosis, caused by microorganisms from the family Aspergillus sp, represents the most common and most difficult-to-treat infection. An antifungal pharmaceutical composition according to the invention was prepared by mixing fluconazole at different concentrations with carvacrol at a sub-inhibitory concentration of 0.25 g per liter of solution or excipient. This pharmaceutical composition according to the invention was named Fluc-P for potentiated fluconazole. In each case, antifungal activity was determined either with fluconazole alone, or with carvacrol alone, or with the composition of the invention.
Table 5 gives the results of static tests to determine the minimal inhibitory concentration (MIC) and the minimal fungicidal concentration (MFC) in μg/ml.

The structures appear in SMILES notation. Like-named read-outs stand apart in the source and are kept apart here.

For `CC[C@H](C)C[C@H](C)CCCCCCCCC(=O)N[C@H]1C[C@@H](O)[C@@H](NCCN)NC(=O)[C@@H]2[C@@H](O)CCN2C(=O)[C@H]([C@H](O)CCN)NC(=O)[C@H]([C@H](O)[C@@H](O)c2ccc(O)cc2)NC(=O)[C@@H]2C[C@@H](O)CN2C(=O)[C@H]([C@@H](C)O)NC1=O` [Caspofungin, caspofungin], the minimum inhibitory concentration (MIC) with Candida albicans (Candida albicans, Example 3, resistant strain, caspofungin alone) is 3 µg/mL; with Candida albicans (Candida albicans, Example 3, susceptible strain, caspofungin alone), below 0.05 µg/mL. In addition, the “caspofungin concentration producing fungicidal activity versus fungistatic concentration of caspofungin alone” value in the assay on Candida albicans (with carvacrol 0.3 mg/ml) is recorded as “at least six times lower”.
With `C=CCc1ccc(O)c(OC)c1` [Eugenol, eugenol], the MFC in the assay with Candida albicans (Candida albicans, Example 4, resistant strain, eugenol alone, read-out: MFC) was 2000 µg/mL; with Candida albicans (Candida albicans, Example 4, susceptible strain, eugenol alone, read-out: MFC), 2000 µg/mL.
As to `C[C@@H](c1ncncc1F)[C@](O)(Cn1cncn1)c1ccc(F)cc1F` [Voriconazole, voriconazole], the MIC in the assay with Candida albicans (Candida albicans, Example 2, resistant strain, voriconazole alone) is 10 µg/mL; in the assay on Candida albicans (Candida albicans, Example 2, susceptible strain, voriconazole alone), below 0.05 µg/mL. Moreover, in the assay with Candida albicans (resistant strains, with carvacrol 0.3 mg/ml), the “voriconazole concentration producing fungicidal activity versus fungistatic concentration of voriconazole alone” value is given as “at least ten times lower”.
With `OC(Cn1cncn1)(Cn1cncn1)c1ccc(F)cc1F` [Fluconazole, fluconazole], the MFC is above 300 µg/mL in the assay with Candida albicans (Candida albicans, Example 1, highly resistant strain, exponential growth phase, substance alone, read-out: MFC); 150 µg/mL in the assay on Candida albicans (Candida albicans, Example 1, moderately resistant strain, exponential growth phase, substance alone, read-out: MFC); 0.5 µg/mL with Candida albicans (Candida albicans, Example 1, susceptible strain, exponential growth phase, substance alone, read-out: MFC). Moreover, the survival result in assay [1] is on record as “died during the experiment”. Besides, in assay [1], the “Candida albicans loads in kidney, lung and bone marrow” value is reported as “high loads”. Besides, the minimal inhibitory concentration (MIC) with Aspergillus niger (Example 5, 12 different strains of Aspergillus niger, fluconazole alone) is above 1000 µg/mL.
Consider `Nc1nc(=O)[nH]cc1F` [5-fluorocytosine], for which the MIC with Candida albicans (Candida albicans, Example 4, resistant strain, 5-fluorocytosine alone) amounted to 25 µg/mL; with Candida albicans (Candida albicans, Example 4, susceptible strain, 5-fluorocytosine alone), 2.5 µg/mL. The “5-fluorocytosine concentration producing fungicidal activity versus fungistatic concentration of 5-fluorocytosine alone” value with Candida albicans (resistant strains, with eugenol 0.5 mg/ml) is on record as “five times lower”.
In the case of `Cc1ccc(C(C)C)cc1O` [Carvacrol, carvacrol], the MFC turned out to be 1000 µg/mL in the assay on Candida albicans (Candida albicans); 1000 µg/mL in the assay on Candida albicans (Example 1, highly resistant strain, exponential growth phase, substance alone); 1000 µg/mL in the assay with Candida albicans (Example 1, moderately resistant strain, exponential growth phase, substance alone); 1000 µg/mL with Candida albicans (Example 2, resistant strain, carvacrol alone); 1000 µg/mL in the assay with Candida albicans (Example 2, susceptible strain, carvacrol alone); 1000 µg/mL in the assay with Candida albicans (Example 3, resistant strain, carvacrol alone). In addition, the MFC in the assay with Candida albicans (Example 3, susceptible strain, carvacrol alone) turned out to be 1000 µg/mL; with Aspergillus niger (Aspergillus niger) it was 500 µg/mL. For the same compound, the survival result in assay [1] is “died during the experiment”. Moreover, the “Candida albicans loads in kidney, lung and bone marrow” value in assay [1] was “high loads”.

For orientation: MIC means the least concentration at which growth counts as inhibited. As usually defined, the MFC is the smallest concentration meeting the test's criterion for killing the fungus.

(Values after US20080214568A1, “Pharmaceutical Combination Comprising an Antifungal Agent and an Active Substance Selected From Carveol, Eugenol, Thymol, Borneol, Carvacrol, and Alpha- and Beta-Ionones” (ADVANCED SCIENTIFIC DEVELOPMENTS, priority 2005, published 2008).)
